Source: patent publication US10807959B2, “WDR5-MLL1 inhibitors and modulators” (Vanderbilt University, priority 2018, dated 2020)

Columns and labels:
WDR5 = WDR5 (Homo sapiens (Human), UniProt P61964); assay: Fluorescence polarization anisotropy (FPA) competition assay, displacement of FITC-MLL or 10mer-Thr-FAM peptide; type: binding; conditions: Table B2, WDR5 WIN-site binding affinity; values not less than 1 nM (FPA)
Text: The assay is run in 384-well format and is read on a BioTek Cytation. […] Replicate values are fit to a 4-parameter fit in XLFit to generate a single IC50 value for each compound that is then converted to a Ki value. Experiments are repeated to generate a 2nd, independent Ki value; values from the two experiments are averaged to produce the reported Ki value for the compound.

MV4:11 cells = assay: Cellular viability / anti-proliferative activity, CellTiter-Glo, 7 day protocol; type: cell-based, human; conditions: Homo sapiens, 168 h; MV4:11 leukemia cells after a 7 day incubation period
Experimental: Anti proliferative activity using MLL-harboring cell lines. MV4:11 cells are grown in RPMI-1640 media supplemented with 10% FBS and 1% penicillin/streptomycin. Viability assays are performed by dispensing […] into each well of an opaque 384-well plate and adding compounds at the indicated concentrations in a final volume of 32 μL and a final concentration of DMSO of 0.1% for all samples. After a set incubation period, 7 day protocol, the viability of cells in each well is assessed using the CellTiter-Glo assay (Promega), read on a GloMax 96 Microplane Luminometer (Promega). Serial dilutions of each cell type are included in all assays to generate standard curves and determine assay measurements are taken within the dynamic range of the instrument. GI50 values are calculated based on three biological replicates, each with three technical replicates. Data are expressed as mean plus/minus S.E.M.

COc1cc(CNC(=O)c2cccc(CNC3=NCCN3)c2F)cc(OC)c1 [Example B21] showed a Ki (WDR5) of 17.8 nM and a GI50 (MV4:11 cells) of over 30000 nM.

With O=C(NCc1ccc(Cl)c(Cl)c1)c1ccc(F)c(CNC2=NCCN2)c1 [Example B6] the Ki (WDR5) was 4.01 nM and the GI50 (MV4:11 cells) was 3280 nM.
